Columns and labels:
MDA-MB-468 cells = experiment: Cell viability assay; assay type: cell-based; settings: Cell Titer Glo
[1] = Stability in solution and photo-stability; assay type: physicochemical; settings: for photo-stability: exposed to normal fluorescent light, aryl iodide
androgen receptor (AR) = molecular target: T1, androgen receptor (AR) (Homo sapiens, UniProt P10275); experiment: Androgen reporter assay; assay type: cell-based
T1 sequence (P10275 1-920): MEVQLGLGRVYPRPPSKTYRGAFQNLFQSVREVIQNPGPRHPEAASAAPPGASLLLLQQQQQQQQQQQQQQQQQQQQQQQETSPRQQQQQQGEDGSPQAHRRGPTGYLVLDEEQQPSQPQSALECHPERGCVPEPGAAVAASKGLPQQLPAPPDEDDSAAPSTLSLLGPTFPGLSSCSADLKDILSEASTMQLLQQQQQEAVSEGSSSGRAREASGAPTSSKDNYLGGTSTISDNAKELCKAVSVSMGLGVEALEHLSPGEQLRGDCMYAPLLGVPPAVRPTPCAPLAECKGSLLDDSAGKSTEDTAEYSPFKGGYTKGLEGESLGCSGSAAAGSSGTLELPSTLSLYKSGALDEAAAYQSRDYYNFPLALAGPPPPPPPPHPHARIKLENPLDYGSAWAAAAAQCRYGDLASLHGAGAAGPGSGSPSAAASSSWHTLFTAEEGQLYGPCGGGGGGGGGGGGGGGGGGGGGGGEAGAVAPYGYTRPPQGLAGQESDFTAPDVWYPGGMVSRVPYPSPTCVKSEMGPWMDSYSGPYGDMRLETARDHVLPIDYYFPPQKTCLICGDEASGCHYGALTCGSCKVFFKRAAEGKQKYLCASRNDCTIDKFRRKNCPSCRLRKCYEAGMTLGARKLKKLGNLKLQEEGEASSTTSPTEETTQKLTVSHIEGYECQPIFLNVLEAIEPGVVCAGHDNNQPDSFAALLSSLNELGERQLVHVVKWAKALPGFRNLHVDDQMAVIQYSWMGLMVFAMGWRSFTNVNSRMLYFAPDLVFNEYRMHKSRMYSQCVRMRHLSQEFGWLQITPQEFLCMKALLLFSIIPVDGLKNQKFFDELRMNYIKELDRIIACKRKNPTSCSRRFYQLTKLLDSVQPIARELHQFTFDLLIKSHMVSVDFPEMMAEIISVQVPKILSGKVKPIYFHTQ

Plasma stability, mouse = assay type: in vitro ADME
Sigma1 = Sigma1 (Homo sapiens, UniProt Q99720); experiment: In vitro radio-ligand binding assay using membranes from MDA-MB-468 cancer cells; settings: for fold decrease in binding affinity compared to IPAG: relative to IPAG
Sigma1, sequence (Q99720 whole entry): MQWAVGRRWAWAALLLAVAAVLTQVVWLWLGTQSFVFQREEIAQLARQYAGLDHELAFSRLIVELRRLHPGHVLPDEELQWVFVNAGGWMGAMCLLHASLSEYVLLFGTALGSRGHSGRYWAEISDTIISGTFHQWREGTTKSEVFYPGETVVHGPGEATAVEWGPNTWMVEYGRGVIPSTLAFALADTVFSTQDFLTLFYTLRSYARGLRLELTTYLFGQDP

Plasma stability, human = assay type: in vitro ADME
[2] = Mouse pharmacokinetics, IV and oral, plasma levels; assay type: in vivo, Male Swiss Mice; settings: for V / AUC / clearance: 2 mg/kg IV; for AUC / clearance: male, Swiss, mouse, plasma, iv, 2 mg/kg; for AUC: AUC0−¥; for clearance: CL
[3] = Mouse pharmacokinetic exposure, IP, plasma and brain; settings: male, Swiss, brain, 10 mg/kg

Row | SMILES | antiproliferative activity, potency (MDA-MB-468 cells) [nM] | photo-stability [1] | Plasma Stability Mouse (Plasma stability, mouse) [h] | acute cytotoxicity (MDA-MB-468 cells) | fold decrease in binding affinity compared to IPAG (Sigma1) | Plasma Stability Human (Plasma stability, human) [h] | other results
1 | NC(=NC12CC3CC(CC(C3)C1)C2)Nc1ccc(I)cc1 [IPAG, (1-adamantan-1-yl)-3-(4-iodophenyl)guanidine, reference compound] | 3000 to 20000 | particularly unstable when exposed to normal fluorescent light |  |  |  |  | stability in solution ([1]; in solution): unstable when in solution
2 | C[C@]12CC[C@H](O)CC1=CC[C@@H]1[C@@H]2CC[C@]2(C)C(c3cccnc3)=CC[C@@H]12 [abiraterone] |  |  |  |  |  |  | EC50 (androgen receptor (AR)): 17100 nM
3 | N=C(NCCCOc1ccc(F)cc1)Nc1ccc(I)cc1 [compound 1] | 3000 to 20000 | photo-stability issue similar to IPAG | >6 | not acutely cytotoxic | 5–10 fold | >6 | 
4 | N=C(Nc1ccc(I)cc1)Nc1ccc(I)cc1 [compound 2] |  | photo-stability issue similar to IPAG |  |  |  |  | Sigma1 binding affinity (in words) (Sigma1): binding affinity similar to IPAG
5 | N=C(NCCCOc1ccc(F)cc1)NCCCOc1ccc(F)cc1 [compound 3] |  |  |  |  |  |  | Sigma1 binding affinity (in words) (Sigma1): no affinity
6 | N=C(NCCCOc1ccc(F)cc1)Nc1ccc(Cl)cc1 [compound 4, 1-(4-chlorophenyl)-3-(3-(4-fluorophenoxy)propyl)guanidine] | 3000 to 20000 |  | >6 | not acutely cytotoxic |  | >6 | V ([2]; Data set 1): 91.0 L/kg; V ([2]; Data set 2): 57.6 L/kg; AUC ([2]; Data set 1): 57 ng·h/mL; AUC ([2]; Data set 2): 71 ng·h/mL; clearance ([2]; Data set 1): 586 mL/min/kg; clearance ([2]; Data set 2): 469 mL/min/kg; dose escalation of exposure, oral 10 mg/kg to 30 mg/kg ([2]; oral route, 10 mg/kg to 30 mg/kg): < 3 fold; Cmax [3]: 691 ng/g
7 | COc1ccc(NC(=N)NCCCOc2ccc(F)cc2)cc1 [compound 5] | 3000 to 20000 |  | >6 | not acutely cytotoxic | 5–10 fold | >6 | 
8 | N=C(NCCCOc1ccc(F)cc1)Nc1ccc(C(F)(F)F)cc1 [compound 6] |  |  |  |  | 5–10 fold |  | 

From article PMC5714280 (Bioorganic & medicinal chemistry letters, 2017)
